In series [1] the test system is ME49 strain T. gondii. The series is described as follows: Chronic toxoplasmosis model, ME49-infected C57BL/6 mice.
Text: Male Swiss mice (Mus musculus) (8 weeks old) for the acute toxoplasmosis experiments and female C57BL/6 mice (4 weeks old) for the chronic toxoplasmosis experiments were sourced from the animal breeding facility at the Universidade Federal de Alfenas, Brazil. Strict adherence to the principles of good animal practice, as outlined in the Brazilian Guidelines for Care and Utilization of Animals by the Conselho Nacional de Controle e Experimentação Animal (CONCEA), was observed during the handling of all animals. The study protocol received approval from the Ethics Committee for Animal Experimentation at the Universidade Federal de Alfenas under Protocols 033/2021 and 0006/2023. All necessary precautions were taken to minimize any potential suffering experienced by the animals.
The mice were infected with 10 cysts of the ME49 strain of T. gondii via intraperitoneal inoculation, following the protocol by [16]. After a 40-day infection period, random assignment was used to divide the mice into distinct experimental groups, each consisting of four mice. These experimental groups were subjected to different treatments: MQ-1, administered either at a dosage of 25 mg/kg/day or 12.5 mg/kg/day, prepared with a 4% DMSO solution in water. […] The administration was carried out via oral gavage, with a final volume of 100 µL per dose. For the control group, 100 µL of the vehicle used to dilute MQ-1 (4% DMSO in water) was administered. […] On the 51st day post-infection, euthanasia was performed for all animals, followed by brain tissue collection for RNA extraction and quantification, as detailed in [18]. DNA extraction and purification were carried out using the PureLink Genomic DNA Minikit (Invitrogen. Carlsbad, CA, USA) following the manufacturer’s instructions. […] After extraction, RNA samples were immediately processed for cDNA synthesis and underwent quantitative real-time (qPCR) analysis. […]
Data on parasite burden in acute and chronic infection in treated and untreated groups were analyzed for statistical significance using One-Way ANOVA, followed by the Tukey post-test. […]
Series [2] can be described thus: Assay for evaluating mammalian cytotoxicity (MTT). Format: cell-based. The note with it: human, human foreskin fibroblast (HFF) cells, ± SD of three independent experiments, read-out: CC50 (Half Cytotoxic Concentration).
Series [3] concerns RH strain T. gondii tachyzoites. Format: in vivo. The method, then: To evaluate the effectiveness of MQ-1 in treating acute T. gondii infection in vivo, a murine model was employed, utilizing Swiss mice in accordance with established protocols. […] Treatment involved the administration of compounds dissolved in a 4% DMSO solution in water, and was conducted one day post-infection. […] . As for the control group, they were administered 100 µL of the vehicle utilized for MQ-1 dilution, consisting of a 4% DMSO solution in water. Continuous monitoring of the mice included daily assessments for signs of toxoplasmosis. These signs encompassed impaired mobility, feeding difficulties, weight loss, self-mutilation, and severe ascites. […] The implementation of humane endpoints aimed to mitigate any potential pain or suffering in the animals, leading to their euthanasia when necessary. At the end of the experimental period, euthanasia was performed on all remaining mice, and the peritoneal parasite load was estimated using a Neubauer chamber.

For series [4], the system named is T. gondii tachyzoites. The series is described as follows: microbe, parasite or virus in culture. It counts as cell-based, Toxoplasma gondii. The note with it: for EC50: Toxoplasma gondii, T. gondii RH-2F1 tachyzoites in HFF, 72 h, ± SD of three independent experiments, read-out: EC50 (Half Effective Concentration); for SI (Selectivity index): CC50 (HFF)/EC50 (T. gondii).

Setting [5] is: vs pyrimethamine 12.5 mg/kg/day.

Entries after “also recorded” stand apart in the source; their conditions may differ.

`COc1ccc2c(c1)nc(-c1c[nH]c3ccccc13)c1[nH]ccc12` [MQ-1]: the “cerebral parasitic load vs vehicle” value in series [1] (C57BL/6 mice, ME49 strain, 25 mg/kg/day oral for 10 consecutive days from day 41 post-infection, qPCR, p < 0.01, 25 mg/kg/day) is “significantly reduced; also recorded: significant (p < 0.01) reduction”. In series [1] (setting [5]), the “difference between the tested compound and the standard drug, chronic evaluation” value is on record as “no statistically significant differences”. Besides, in series [2], the CC50 at 72 h was 30.5 ± 1.8 µM. In addition, the “signs of toxicity throughout the treatment” value in series [3] (Swiss mice, 12.5 mg/kg/day oral for 8 days) is “No signs of toxicity were observed”. In series [3] (setting [5]), the “difference between the tested compound and the standard drug, acute evaluation” value was “no statistically significant differences”. In addition, the EC50 in series [4] was found to be 1.46 ± 0.45 µM.
Consider `COc1ccc2c(c1)nc(-c1ccc(N3CCNCC3)cc1)c1[nH]ccc12` [MQ-2], for which, in series [2], the CC50 at 72 h is 29.1 ± 0.84 µM. In series [4], the “SI (Selectivity index)” value amounted to 17.39 and the EC50 is 1.67 ± 0.4 µM.
Take `CC(C)(C)OC(=O)Nc1ccc(-c2nc3ccc(Cl)cc3c3cc[nH]c23)cc1` [MQ-3]: in series [2], the CC50 at 72 h turned out to be 5.36 ± 0.91 µM. Further, in series [4], the “SI (Selectivity index)” value worked out at 3.35 and the EC50 came to 1.6 ± 0.54 µM.
In the same order, the values of `CC(C)(C)OC(=O)Nc1ccc(-c2nc3ccc(OC(F)(F)F)cc3c3cc[nH]c23)cc1` [MQ-4] are 4.16 ± 1.05 µM, 3.18 and 1.31 ± 0.31 µM.
As to `COc1ccc2c(c1)nc(-c1ccc(N3CCC(F)CC3)cc1)c1[nH]ccc12` [MQ-5], the CC50 at 72 h in series [2] turned out to be 5.05 ± 1.63 µM. Also, in series [4], the “SI (Selectivity index)” value amounted to 3.52 and the EC50 turned out to be 1.43 ± 0.37 µM.
In the same order, the values of `COc1ccc2c(c1)nc(-c1ccc(Br)cn1)c1[nH]ccc12` [MQ-6] are 28.6 ± 7.33 µM, 7.55 and 3.78 ± 0.67 µM.
Consider `CCc1nc(N)nc(N)c1-c1ccc(Cl)cc1` [PYR, pyrimethamine, reference compound], for which the CC50 at 72 h in series [2] was 68.1 ± 4.26 µM. In series [4], the EC50 was 0.29 ± 0.19 µM.

(Values after article PMC10891983, “First Description of Marinoquinoline Derivatives’ Activity against Toxoplasma gondii” (Pharmaceutics, 2024).)
